Patent publication US4486411A, “Beta-lactamase inhibiting 6-beta-sulfonyloxypenicillanic acid derivatives” (Pfizer Inc., priority 1981, dated 1984)
Where “and” joins values, the source holds several entries; their conditions need not be identical. Equal values may be shown once. Read-outs that look alike come from different tables or passages of the source.

Key:
[1] = tested on: Enterobacter cloacae; assay: MIC, brain heart infusion agar dilution; format: cell-based; conditions: for MIC with Ampicillin / Response with Ampicillin: 1:1 mixture with ampicillin; for MIC: Enterobacter cloacae, 18 h, alone, Table II gives two separate tests
Procedure: (§1) The procedure which is followed is the one recommended by the International Collaborative Study on Antibiotic Sensitivity Testing [Ericcson and Sherris, Acta. Pathologica et Microbiologia Scandinav, Supp. 217, Sections A and B: 64-68 (1971)], and employs brain heart infusion (BHI) agar and the inocula replicating device. Overnight growth tubes are diluted 100 fold for use as the standard inoculum (20,000-10,000 cells in approximately 0.002 ml. are placed on the agar surface; 20 ml. of BHI agar/dish). Twelve 2 fold dilutions of the test compound are employed, with initial concentration of the test drug being 200 mcg./ml. Single colonies are disregarded when reading plates after 18 hrs. at 37° C. The susceptibility (MIC) of the test organism is accepted as the lowest concentration of compound capable of producing complete inhibition of growth as judged by the naked eye. The manner in which the said compounds of the formula I increase the effectiveness of a beta-lactam antibiotic can be appreciated by reference to experiments in which the MIC of a given antibiotic alone, and a compound of the formula I alone, are measured. These MIC's are then compared with the MIC values obtained with a combination of the given antibiotic and the compound of the formula I wherein R^1 is hydrogen. […] The MIC values of combinations are measured using the method described by Barry and Sabath in "Manual of Clinical Microbiology", edited by Lenette, Spaulding and Truant, 2nd Edition, 1974, American Society for Microbiology.
(§2) Results of experiments illustrating that compounds of the formula II enhance the effectiveness of various beta-lactam antibiotics are reported in Tables I and II. […] It is obvious that the combination of compounds of the formula II with beta-lactam antibiotics will show synergistic activity against other bacterial strains, including some freshly isolated in the clinics. Determination of this activity is a matter of routine application of this type of testing.

[2] = tested on: Escherichia coli 129*; assay: MIC, brain heart infusion agar dilution; format: cell-based; conditions: for MIC with Ampicillin: 1:1 mixture with ampicillin; for MIC: Escherichia coli, 18 h, read-out: MIC Alone
Procedure: as §1, §2

[3] = tested on: Escherichia coli 2*; assay: MIC, brain heart infusion agar dilution; format: cell-based; conditions: for MIC with Cefazolin: 1:1 mixture with cefazolin; for MIC: Escherichia coli, 18 h, read-out: MIC Alone
Procedure: as §1, §2

[4] = tested on: Escherichia coli 266; assay: MIC, brain heart infusion agar dilution; format: cell-based; conditions: for MIC: Escherichia coli, 266, 18 h, alone, Table II gives two separate tests
Procedure: as §1, §2

[5] = tested on: Klebsiella pneumonia; assay: MIC, brain heart infusion agar dilution; format: cell-based; conditions: for MIC with Ampicillin / Response with Ampicillin: 1:1 mixture with ampicillin; for MIC with Cefazolin / Response with Cefazolin: 1:1 mixture with cefazolin; for MIC: Klebsiella pneumoniae, 18 h, alone, Table II gives two separate tests
Procedure: as §1, §2

[6] = tested on: Proteus morgani; assay: MIC, brain heart infusion agar dilution; format: cell-based; conditions: for MIC with Ampicillin: 1:1 mixture with ampicillin; for MIC with Cefazolin / Response with Cefazolin: 1:1 mixture with cefazolin; for MIC: 18 h, alone, Table II gives two separate tests
Procedure: as §1, §2

[7] = tested on: Pseudomonas aeruginosa; assay: MIC, brain heart infusion agar dilution; format: cell-based; conditions: for MIC with Ampicillin: 1:1 mixture with ampicillin; for MIC with Cefazolin: 1:1 mixture with cefazolin; for MIC: Pseudomonas aeruginosa, 18 h, alone, Table II gives two separate tests
Procedure: as §1, §2

[8] = tested on: Serratia marcescens; assay: MIC, brain heart infusion agar dilution; format: cell-based; conditions: for MIC: Serratia marcescens, 18 h, alone, Table II gives two separate tests
Procedure: as §1, §2

[9] = tested on: Staphylococcus aureus 400*; assay: MIC, brain heart infusion agar dilution; format: cell-based; conditions: resistant variant
Procedure: as §1, §2

[10] = tested on: Staphylococcus aureus 5; assay: MIC, brain heart infusion agar dilution; format: cell-based; conditions: for MIC with Ampicillin: 1:1 mixture with ampicillin; for MIC: 18 hrs. at 37° C., Table II gives two separate tests
Procedure: as §1, §2

[11] = target: Enterobacter cloacae 67B009 beta-lactamase (Enterobacter cloacae, UniProt P05364); assay: Inhibition of cell free beta-lactamase (beta-lactam hydrolysis); format: biochemical; conditions: pH 6.5, 37° C.; for inhibition at 66 µM: inhibitor 66 μM; for inhibition at 16.5 µM: inhibitor 16.5 μM
Sequence of Enterobacter cloacae 67B009 beta-lactamase (P05364 21-381): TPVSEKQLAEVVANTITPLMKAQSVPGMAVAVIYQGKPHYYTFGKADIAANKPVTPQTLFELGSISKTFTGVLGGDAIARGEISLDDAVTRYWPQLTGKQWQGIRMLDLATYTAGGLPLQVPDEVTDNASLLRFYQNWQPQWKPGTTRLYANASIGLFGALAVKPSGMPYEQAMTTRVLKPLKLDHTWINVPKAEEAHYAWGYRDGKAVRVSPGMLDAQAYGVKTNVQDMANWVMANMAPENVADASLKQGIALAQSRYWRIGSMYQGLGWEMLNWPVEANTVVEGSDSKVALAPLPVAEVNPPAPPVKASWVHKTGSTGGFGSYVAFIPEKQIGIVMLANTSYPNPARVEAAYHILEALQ
Procedure: (§3) The compounds of the present invention are also evaluated in vitro by their ability to inhibit the hydrolysis of certain beta-lactam antibiotics by beta-lactamase enzymes. The hydrolysis of ampicillin and penicillin G was determined by the microiodometric method of Novick [Biochem. J. 83, 236 (1962)].
(§4) Cephaloridine hydrolysis was measured by following the decrease in ultraviolet absorbance at 255 nm [O'Callaghan et al., Antimicrob. Agents Chemother. 1968, pp. 57-63 (1969)]. Conditions for both assays were idential: 0.5 M potassium phosphate, pH 6.5 and 37° C. Reactions were initiated by the addition of the cell-free beta-lactamase, except in the case of preincubation experiments in which the inhibitor and enzyme were incubated together in the assay mixture for 10 minutes before initiation of the reaction by addition of substrate. With the cell-free extracts of Staphylococcus aureus, Escherichia coli, Klebsiella pneumoniae and Pseudomonas aeruginosa, the substrate was ampicillin at 33 micro M (13 microg./ml.). Typical specific activities of the beta-lactamase preparations were, respectively, 6,019, 88,970, 260 and 76 micromol/hr. per mg. of protein.
(§5) Cell-free extracts were prepared by sonic treatment (using three 30-s bursts at 4° C. except for S. aureus, which was broken with a French press) of cultures grown in brain heart infusion on a rotary shaker incubator. For the S. aureus, P. aeruginosa, and E. cloacae strains, de novo synthesis of beta-lactamase was induced by growing a log-phase culture in the presence of a sublethal concentration of penicillin G at 100, 1,000, and 300 microg./ml, respectively, for 2.5 hr.

[12] = tested on: Escherichia coli 51A129 beta-lactamase; assay: as above; format: biochemical; conditions: Ampicillin 33 μM, pH 6.5, 37° C.
Procedure: as §3, §4, §5

[13] = tested on: Klebsiella pneumoniae 53A129 beta-lactamase; assay: as above; format: biochemical; conditions: Ampicillin 33 μM, pH 6.5, 37° C.
Procedure: as §3, §4, §5

[14] = target: T1, Staphylococcus aureus 01A400 beta-lactamase (Staphylococcus aureus, UniProt P00807); assay: as above; format: biochemical; conditions: pH 6.5, 37° C.; for % Inhibition Beta-Lactam Hydrolysis: listed as R = C6 H5, n = 0
T1 construct: Cell-free extracts were prepared by sonic treatment; endogenous in cells; host or cells: Staphylococcus aureus 01A400, penicillin G-induced culture, cell-free extract (French press)
T1 sequence (P00807 25-281): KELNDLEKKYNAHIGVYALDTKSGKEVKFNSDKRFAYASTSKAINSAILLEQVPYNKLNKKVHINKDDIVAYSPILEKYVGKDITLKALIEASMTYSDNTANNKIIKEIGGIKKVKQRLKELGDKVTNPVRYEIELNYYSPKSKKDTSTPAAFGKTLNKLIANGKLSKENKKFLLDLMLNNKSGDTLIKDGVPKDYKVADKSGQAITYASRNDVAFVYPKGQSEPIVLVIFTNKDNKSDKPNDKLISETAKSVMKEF
Procedure: as §3, §4, §5

[15] = target: T2, Pseudomonas aeruginosa 52A104 beta-lactamase (Pseudomonas aeruginosa, UniProt P24735); assay: as above; format: biochemical; conditions: pH 6.5, 37° C.
T2 construct: cell-free sonicate of penicillin G-induced culture
T2 sequence (P24735 27-397): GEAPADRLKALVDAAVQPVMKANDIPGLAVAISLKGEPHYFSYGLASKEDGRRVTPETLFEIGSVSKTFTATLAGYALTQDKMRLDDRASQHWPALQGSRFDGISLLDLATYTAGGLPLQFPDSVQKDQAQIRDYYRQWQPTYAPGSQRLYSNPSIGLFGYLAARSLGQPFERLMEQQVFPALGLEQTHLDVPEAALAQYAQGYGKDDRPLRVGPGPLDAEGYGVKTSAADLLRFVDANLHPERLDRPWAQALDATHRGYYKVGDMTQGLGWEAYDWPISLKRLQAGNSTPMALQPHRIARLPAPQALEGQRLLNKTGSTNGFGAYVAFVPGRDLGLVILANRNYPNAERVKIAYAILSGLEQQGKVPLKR
Procedure: as §3, §4, §5

[16] = 1:1 mixture with cefazolin, resistant variant
[17] = 1:1 mixture with ampicillin, resistant variant
[18] = Staphylococcus aureus, 5, alone, read-out: MIC Alone
[19] = pH 6.5, Ampicillin 33 μM, inhibitor 66 μM

Structure (SMILES): CC1(C)S[C@@H]2[C@H](OS(C)(=O)=O)C(=O)N2[C@H]1C(=O)O [Sodium Methanesulfonyloxypenicillanate, Sodium 6-beta-(Methanesulfonyloxy)penicillanate]
- MIC with Ampicillin [1]: 100 µg/mL
- Response with Ampicillin [1]: Synergy
- MIC with Cefazolin ([1]; 1:1 mixture with cefazolin): > 100 µg/mL
- MIC [1]: > 200 µg/mL
- MIC with Ampicillin ([2]; resistant variant): > 100 µg/mL
- MIC with Cefazolin [2, 16]: 50 µg/mL
- Response with Cefazolin [2, 16]: Antagonism
- MIC [2]: > 200 µg/mL
- MIC with Ampicillin [3, 17]: 100 µg/mL
- Response with Ampicillin [3, 17]: Additive
- MIC with Cefazolin ([3]; resistant variant): 6.25 µg/mL
- MIC [3]: > 200 µg/mL
- MIC with Ampicillin ([4]; 1:1 mixture with ampicillin): 3.12 µg/mL
- Response with Ampicillin ([4]; 1:1 mixture with ampicillin): Antagonism
- MIC [4]: > 200 µg/mL
- MIC with Ampicillin [5]: 100 µg/mL
- Response with Ampicillin [5]: Antagonism
- MIC with Cefazolin [5]: 1.56 µg/mL
- Response with Cefazolin [5]: No effect
- MIC [5]: > 200 µg/mL
- MIC with Ampicillin [6]: 1.56 µg/mL
- MIC with Cefazolin [6]: 25 µg/mL
- Response with Cefazolin [6]: Synergy
- MIC [6]: > 200 µg/mL
- MIC with Ampicillin [7]: > 100 µg/mL
- MIC with Cefazolin [7]: > 100 µg/mL
- MIC [7]: > 200 µg/mL
- MIC with Ampicillin ([8]; 1:1 mixture with ampicillin): 25 µg/mL
- Response with Ampicillin ([8]; 1:1 mixture with ampicillin): Antagonism
- MIC with Cefazolin ([8]; 1:1 mixture with cefazolin): 100 µg/mL
- Response with Cefazolin ([8]; 1:1 mixture with cefazolin): Synergy
- MIC [8]: > 200 µg/mL
- MIC with Ampicillin ([9]; 1:1 mixture with ampicillin): 3.12 µg/mL
- Response with Ampicillin ([9]; 1:1 mixture with ampicillin): Additive
- MIC with Cefazolin ([9]; 1:1 mixture with cefazolin): ≥ 0.2 µg/mL
- Response with Cefazolin ([9]; 1:1 mixture with cefazolin): Synergy
- MIC ([9]; Staphylococcus aureus, 18 h, read-out: MIC Alone, alone, Table II gives two separate tests): 6.25 µg/mL
- MIC with Ampicillin [10]: ≤ 0.2 µg/mL
- MIC [10, 18]: 12.5 µg/mL
- inhibition at 66 µM ([11]; pH 6.5, Penicillin G 33 μM): 66.7%
- % Inhibition Beta-Lactam Hydrolysis ([12]; inhibitor 66 μM): 4.4%
- % Inhibition Beta-Lactam Hydrolysis ([13]; inhibitor 16.5 μM): 0%
- inhibition at 16.5 µM ([14]; pH 6.5, Ampicillin 33 μM, inhibitor 16.5 μM): 100%
- inhibition at 66 µM [14, 19]: 100%

Structure (SMILES): CC1(C)[C@H](C(=O)O)N2C(=O)[C@@H](OS(=O)(=O)Cc3ccccc3)[C@H]2S1(=O)=O [R = C6 H5, n = 2, Sodium 6-beta-(alpha-Toluene-sulfonyloxy)penicillanate Sulfone]
- inhibition at 66 µM ([11]; pH 6.5, Penicillin G 33 μM): 0%
- inhibition at 66 µM [14, 19]: 36.2%

Structure (SMILES): CC1(C)S[C@@H]2[C@H](OS(=O)(=O)Cc3ccccc3)C(=O)N2[C@H]1C(=O)O [Sodium 6-Beta-(Alpha-Toluenesulfonyloxy)penicillanate]
- MIC with Ampicillin [1]: 100 µg/mL
- Response with Ampicillin [1]: Synergy
- MIC with Cefazolin ([1]; 1:1 mixture with cefazolin): 100 µg/mL
- Response with Cefazolin ([1]; 1:1 mixture with cefazolin): Synergy
- MIC [1]: > 200 µg/mL
- MIC with Ampicillin ([2]; resistant variant): > 100 µg/mL
- MIC with Cefazolin [2, 16]: 100 µg/mL and 50 µg/mL
- MIC [2]: > 200 µg/mL
- MIC with Ampicillin [3, 17]: > 100 µg/mL
- MIC with Cefazolin ([3]; resistant variant): 12.5 µg/mL and 6.25 µg/mL
- MIC [3]: > 200 µg/mL
- MIC with Ampicillin ([4]; 1:1 mixture with ampicillin): 3.12 µg/mL and 1.56 µg/mL
- MIC [4]: > 200 µg/mL
- MIC with Ampicillin [5]: > 100 µg/mL
- Response with Ampicillin [5]: Antagonism
- MIC with Cefazolin [5]: 0.78 µg/mL
- Response with Cefazolin [5]: Additive
- MIC [5]: > 200 µg/mL
- MIC with Ampicillin [6]: 3.12 µg/mL
- MIC with Cefazolin [6]: 50 µg/mL
- Response with Cefazolin [6]: Synergy
- MIC [6]: > 200 µg/mL
- MIC with Ampicillin [7]: > 100 µg/mL
- MIC with Cefazolin [7]: > 100 µg/mL
- MIC [7]: > 200 µg/mL
- MIC with Cefazolin ([8]; 1:1 mixture with cefazolin): > 100 µg/mL
- MIC [8]: > 200 µg/mL
- Response with Ampicillin ([9]; 1:1 mixture with ampicillin): Additive
- MIC with Ampicillin [10]: ≤ 0.2 µg/mL
- MIC ([10]; Staphylococcus aureus, 5, 18 h, read-out: MIC Alone, alone): 6.25 µg/mL
- MIC [10, 18]: 100 µg/mL
- inhibition at 16.5 µM ([11]; pH 6.5, Cephalexin 33 μM): 100%
- inhibition at 16.5 µM ([11]; pH 6.5, Cephaloridine 4 μM): 100%
- inhibition at 4 µM ([11]; pH 6.5, Cephaloridine 33 μM, inhibitor 4 μM): 93.7%
- inhibition at 16.5 µM ([11]; pH 6.5, Cephaloridine 33 μM): 98.3%
- inhibition at 16.5 µM ([11]; pH 6.5, Penicillin G 33 μM): 96%
- inhibition at 66 µM ([11]; pH 6.5, Penicillin G 33 μM): 96%
- % Inhibition Beta-Lactam Hydrolysis ([12]; inhibitor 16.5 μM): 14.0%
- % Inhibition Beta-Lactam Hydrolysis ([12]; inhibitor 66 μM): 15.8%
- % Inhibition Beta-Lactam Hydrolysis ([13]; inhibitor 16.5 μM): 3.0%
- % Inhibition Beta-Lactam Hydrolysis ([13]; inhibitor 66 μM): 0%
- inhibition at 16.5 µM ([15]; Cephaloridine 16.5 μM, inhibitor 16.5 μM): 92.6%
- inhibition at 66 µM ([15]; Penicillin G 33 μM, inhibitor 66 μM): 100%
- % Inhibition Beta-Lactam Hydrolysis ([14]; Ampicillin 33 μM, inhibitor 16.5 μM): 40.3% and 78% and 63.3%
- % Inhibition Beta-Lactam Hydrolysis ([14]; Ampicillin 33 μM, inhibitor 66 μM): 91.4% and 91%
- inhibition at 66 µM [14, 19]: 85%
- inhibition at 66 µM ([14]; pH 6.5, Preincubation experiment (10 minutes), Ampicillin 33 μM, inhibitor 66 μM): 87.2%
